# Reference: patent publication US20250313563A1, “GLYCOGEN SYNTHASE KINASE 3 INHIBITORS AND USES THEREOF” (The Broad Institute, Inc., priority 2022, published 2025)
# Read-outs that look alike come from different tables or passages of the source.
# Experiments:
# [1] = target: GSK3α (GST-full length GSK3α) (Homo sapiens (Human), UniProt P49840); assay: GSK3α TR-FRET kinase assay; type: biochemical
# Summary of the method: (§1)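 Full-length GST-tagged human enzyme (1 nM) is exposed to test compound for 30 min before substrates are added. Phosphorylation of a primed biotinylated glycogen synthase peptide proceeds 100 min at room temperature at low ATP (4 μM α; 2 μM β) or high ATP (1 mM). Product is quantified by TR-FRET.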
# [2] = target: GSK3b (GST-full length GSK3b) (Homo sapiens (Human), UniProt P49841); assay: GSK3b TR-FRET kinase assay; type: biochemical
# Summary of the method: as §1
# [3] = 1 nM GSK3α, 4 μM ATP, 30 minute preincubation, read-out: GSK3-A TR-FRET BIOCHEMICAL (TR-FRET), IC50
# [4] = 1 nM GSK3b, 2 μM ATP, 30 minute preincubation, read-out: GSK3-B TR-FRET BIOCHEMICAL (TR-FRET), IC50
# [5] = 1 nM GSK3α, 4 μM ATP, 30 minute preincubation, Table 16, read-out: GSK3-A TR-FRET BIOCHEMICAL (TR-FRET), IC50
# [6] = 1 nM GSK3b, 2 μM ATP, 30 minute preincubation, Table 16, read-out: GSK3-B TR-FRET BIOCHEMICAL (TR-FRET), IC50
# [7] = read-out: GSK3-A (TR-FRET 1 mM ATP), GMean, IC50, 1 mM ATP, geometric mean
# [8] = read-out: GSK3-B (TR-FRET 1 mM ATP), GMean, IC50, 1 mM ATP, geometric mean
# Sequence of GSK3α (GST-full length GSK3α) (P49840 whole entry): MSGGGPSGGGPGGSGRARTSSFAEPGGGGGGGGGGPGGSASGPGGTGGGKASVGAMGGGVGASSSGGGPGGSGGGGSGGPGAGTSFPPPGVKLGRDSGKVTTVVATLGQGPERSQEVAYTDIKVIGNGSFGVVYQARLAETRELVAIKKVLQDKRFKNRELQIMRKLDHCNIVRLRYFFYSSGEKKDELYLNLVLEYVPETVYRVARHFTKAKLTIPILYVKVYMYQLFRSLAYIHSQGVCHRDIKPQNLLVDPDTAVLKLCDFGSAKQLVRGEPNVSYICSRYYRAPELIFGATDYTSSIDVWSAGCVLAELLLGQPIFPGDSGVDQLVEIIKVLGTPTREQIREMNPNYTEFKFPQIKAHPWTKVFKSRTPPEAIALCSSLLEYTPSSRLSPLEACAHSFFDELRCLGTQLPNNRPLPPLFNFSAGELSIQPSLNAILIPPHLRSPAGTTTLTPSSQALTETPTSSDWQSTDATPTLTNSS
# Sequence of GSK3b (GST-full length GSK3b) (P49841 whole entry): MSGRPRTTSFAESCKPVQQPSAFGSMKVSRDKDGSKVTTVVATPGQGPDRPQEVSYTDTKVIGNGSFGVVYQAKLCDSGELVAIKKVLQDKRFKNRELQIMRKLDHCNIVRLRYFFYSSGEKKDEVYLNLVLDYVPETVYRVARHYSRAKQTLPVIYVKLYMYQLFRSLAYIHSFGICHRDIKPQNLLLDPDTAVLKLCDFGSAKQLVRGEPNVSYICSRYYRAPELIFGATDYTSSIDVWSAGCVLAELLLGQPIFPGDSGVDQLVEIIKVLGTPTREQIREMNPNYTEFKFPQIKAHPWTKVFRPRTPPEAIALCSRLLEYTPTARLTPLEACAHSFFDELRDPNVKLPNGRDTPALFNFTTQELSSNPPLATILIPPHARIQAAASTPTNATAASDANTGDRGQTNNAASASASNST
"IC50 [1, 5] [nM]","IC50 [2, 6] [nM]","IC50 [1, 7] [nM]","IC50 [2, 8] [nM]",further results,Structure (SMILES)
–,–,–,–,"IC50 [1, 3]: 100 to 1000 nM; IC50 [2, 4]: 1000 to 5000 nM",CC1(C)CC(=O)C2=C(C1)Nc1n[nH]cc1C21COC2(CN(S(=O)(=O)c3ccccc3)C2)C1 (centres unmarked) [Compound 913002]
–,–,–,–,"IC50 [1, 3]: > 5000 nM; IC50 [2, 4]: > 5000 nM",CC[C@@]1(c2cccc(C(F)(F)F)c2)C2=C(CC(C)(C)NC2=O)Nc2n[nH]cc21 [Compound 913004]
–,–,–,–,"IC50 [1, 3]: ≤ 100 nM; IC50 ([1]; GSK3-A (TR-FRET 1 mM ATP), GMean, IC50, 1 mM ATP, geometric mean): 100 to 1000 nM; IC50 [2, 4]: ≤ 100 nM; IC50 ([2]; GSK3-B (TR-FRET 1 mM ATP), GMean, IC50, 1 mM ATP, geometric mean): > 5000 nM","CCC1(c2cccc(C(F)(F)F)c2)C2=C(CC(C)(C)NC2=O)Nc2n[nH]cc21 (centres unmarked) [Compound 913006, 4-ethyl-7,7-dimethyl-4-(3-(trifluoromethyl)phenyl)-2,4,6,7,8,9-hexahydro-5H-pyrazolo[3,4-b][1,6]naphthyridin-5-one]"
100 to 1000,100 to 1000,–,–,–,CCC1(c2cccc(-c3ccncc3F)c2)C2=C(CC(C)(C)CC2=O)Nc2n[nH]c(C)c21 (centres unmarked) [Compound 913017]
≤ 100,≤ 100,100 to 1000,1000 to 5000,–,CCC1(c2cccc(-c3ccnc(C)c3)c2)C2=C(CC(C)(C)CC2=O)Nc2n[nH]c(C)c21 (centres unmarked) [Compound 913018]
≤ 100,≤ 100,–,–,–,CCC1(c2cccc(-c3ccnc(C(F)(F)F)c3)c2)C2=C(CC(C)(C)CC2=O)Nc2n[nH]c(C)c21 (centres unmarked) [Compound 913020]
≤ 100,≤ 100,–,–,–,CC[C@@]1(c2cccc(-c3ccnc(N(C)C)c3)c2)C2=C(CC(C)(C)CC2=O)Nc2n[nH]c(C)c21 [Compound 913021]
100 to 1000,1000 to 5000,–,–,–,CCC1(c2cccc(-c3ccncc3C)c2)C2=C(CC(C)(C)CC2=O)Nc2n[nH]c(C)c21 (centres unmarked) [Compound 913022]
–,–,≤ 100,100 to 1000,–,CCC1(c2cccc(-c3ccnn3C)c2)C2=C(CC(C)(C)CC2=O)Nc2n[nH]c(C)c21 (centres unmarked) [Compound 913023]
≤ 100,≤ 100,≤ 100,100 to 1000,–,CCC1(c2cccc(-c3cn[nH]c3)c2)C2=C(CC(C)(C)CC2=O)Nc2n[nH]c(C)c21 (centres unmarked) [Compound 913025]
100 to 1000,100 to 1000,–,–,–,CCC1(c2cccc(-c3c(C)nn(C)c3C)c2)C2=C(CC(C)(C)CC2=O)Nc2n[nH]c(C)c21 (centres unmarked) [Compound 913026]
≤ 100,≤ 100,–,–,–,CCC1(c2cccc(-c3cnn(C4CC4)c3)c2)C2=C(CC(C)(C)CC2=O)Nc2n[nH]cc21 (centres unmarked) [Compound 913028]
≤ 100,≤ 100,–,–,–,CC[C@@]1(c2cccc(-c3cn(C)nc3C(C)C)c2)C2=C(CC(C)(C)CC2=O)Nc2n[nH]c(C)c21 [Compound 913029]
≤ 100,≤ 100,–,–,–,CCC1(c2cccc(-c3cnn(C)c3)c2)C2=C(CC(C)(C)CC2=O)Nc2n[nH]c(C)c21 (centres unmarked) [Compound 913031]
≤ 100,≤ 100,≤ 100,≤ 100,–,CC[C@@]1(c2cccc(-c3cncn3C)c2)C2=C(CC(C)(C)CC2=O)Nc2n[nH]c(C)c21 [Compound 913032]
100 to 1000,1000 to 5000,–,–,–,CCC1(c2cccc(-c3cnn4c3CCCC4)c2)C2=C(CC(C)(C)CC2=O)Nc2n[nH]c(C)c21 (centres unmarked) [Compound 913033]
1000 to 5000,> 5000,–,–,–,CCC1(c2cccc(-c3cn(C)nc3C)c2)C2=C(CC(C)(C)CC2=O)Nc2n[nH]c(C)c21 (centres unmarked) [Compound 913034]
≤ 100,≤ 100,≤ 100,100 to 1000,–,CC[C@]1(c2cccc(-c3cn(C)nc3C)c2)C2=C(CC(C)(C)CC2=O)Nc2n[nH]c(C)c21 [Compound 913035]
≤ 100,≤ 100,≤ 100,100 to 1000,–,CCC1(c2cccc(-c3cnn4c3CCCC4)c2)C2=C(CC(C)(C)CC2=O)Nc2n[nH]c(C)c21 (centres unmarked) [Compound 913036]
≤ 100,100 to 1000,–,–,–,CC[C@]1(c2cccc(-c3cncn3C)c2)C2=C(CC(C)(C)CC2=O)Nc2n[nH]c(C)c21 [Compound 913037]

"IC50 [1, 5] [nM]","IC50 [2, 6] [nM]","IC50 [1, 7] [nM]","IC50 [2, 8] [nM]",further results,Structure (SMILES)
100 to 1000,1000 to 5000,–,–,–,CCC1(c2cccc(-c3cnn(C)c3)c2)C2=C(CC(C)(C)CC2=O)Nc2n[nH]c(C)c21 (centres unmarked) [Compound 913038]
1000 to 5000,> 5000,–,–,–,CCC1(c2cccc(-c3ccn(C)n3)c2)C2=C(CC(C)(C)CC2=O)Nc2n[nH]c(C)c21 (centres unmarked) [Compound 913039]
100 to 1000,1000 to 5000,–,–,–,CC[C@]1(c2cccc(-c3cn(C)nc3C(C)C)c2)C2=C(CC(C)(C)CC2=O)Nc2n[nH]c(C)c21 [Compound 913040]
> 5000,> 5000,–,–,–,CC[C@]1(c2cccc(-c3cnn(CCOC)c3)c2)C2=C(CC(C)(C)CC2=O)Nc2n[nH]c(C)c21 [Compound 913042]
≤ 100,≤ 100,≤ 100,100 to 1000,–,CC[C@]1(c2cccc(-c3c(C)nn(C)c3C)c2)C2=C(CC(C)(C)CC2=O)Nc2n[nH]c(C)c21 [Compound 913043]
100 to 1000,100 to 1000,–,–,–,CCC1(c2cccc(-c3cn[nH]c3)c2)C2=C(CC(C)(C)CC2=O)Nc2n[nH]c(C)c21 (centres unmarked) [Compound 913044]
–,–,≤ 100,100 to 1000,–,CCC1(c2cccc(-c3cnn(C)c3C)c2)C2=C(CC(C)(C)CC2=O)Nc2n[nH]c(C)c21 (centres unmarked) [Compound 913045]
≤ 100,≤ 100,≤ 100,100 to 1000,–,CC[C@]1(c2cccc(-c3ccncc3C)c2)C2=C(CC(C)(C)CC2=O)Nc2n[nH]cc21 [Compound 913047]
100 to 1000,> 5000,–,–,–,CCC1(c2cccc(-c3ccnc(C(F)(F)F)c3)c2)C2=C(CC(C)(C)CC2=O)Nc2n[nH]c(C)c21 (centres unmarked) [Compound 913049]
≤ 100,≤ 100,≤ 100,100 to 1000,–,CC[C@]1(c2cccc(-c3cc(C)ncc3C)c2)C2=C(CC(C)(C)CC2=O)Nc2n[nH]c(C)c21 [Compound 913050]
100 to 1000,> 5000,–,–,–,CCC1(c2cccc(-c3ccnc(C)c3)c2)C2=C(CC(C)(C)CC2=O)Nc2n[nH]c(C)c21 (centres unmarked) [Compound 913051]
≤ 100,≤ 100,≤ 100,100 to 1000,–,CCC1(c2cccc(-c3ccncc3F)c2)C2=C(CC(C)(C)CC2=O)Nc2n[nH]c(C)c21 (centres unmarked) [Compound 913052]
≤ 100,≤ 100,–,–,–,CCC1(c2cccc(-c3ccnc(OC)c3)c2)C2=C(CC(C)(C)CC2=O)Nc2n[nH]c(C)c21 (centres unmarked) [Compound 913053]
–,–,–,–,"IC50 [1, 3]: 100 to 1000 nM; IC50 [2, 4]: 1000 to 5000 nM",CC1(C)CC(=O)C2=C(C1)Nc1n[nH]cc1C21CCC2(CCC(=O)N2)CC1 (centres unmarked) [Compound 913056]
–,–,≤ 100,100 to 1000,"IC50 [1, 3]: ≤ 100 nM; IC50 [2, 4]: ≤ 100 nM",CC(=O)N1CC2(C1)CC1(CO2)C2=C(CC(C)(C)CC2=O)Nc2n[nH]cc21 (centres unmarked) [Compound 913058]
≤ 100,100 to 1000,–,–,–,CCC1(c2cccc(N(C)c3cccc(OC)n3)c2)C2=C(CC(C)(C)CC2=O)Nc2n[nH]cc21 (centres unmarked) [Compound 913121]
100 to 1000,100 to 1000,–,–,–,CCC1(c2cccc(N(C)c3cccc(C(F)(F)F)n3)c2)C2=C(CC(C)(C)CC2=O)Nc2n[nH]cc21 (centres unmarked) [Compound 913122]
≤ 100,≤ 100,≤ 100,100 to 1000,–,CCC1(c2cccc(S(=O)(=O)c3ccccc3)c2)C2=C(CC(C)(C)CC2=O)Nc2n[nH]cc21 (centres unmarked) [Compound 913123]
100 to 1000,100 to 1000,–,–,–,CCC1(c2cc(N(C)C(C)=O)ccc2F)C2=C(CC(C)(C)CC2=O)Nc2n[nH]cc21 (centres unmarked) [Compound 913124]
≤ 100,100 to 1000,–,–,–,CCC1(c2cccc(N(C)C(=O)CN3CCCC3)c2)C2=C(CC(C)(C)CC2=O)Nc2n[nH]cc21 (centres unmarked) [Compound 913125]
